Experiments:
[1] = tested on: C. albicans ATCC MYA-1003(R) (strain A); type: cell-based, Candida albicans; conditions: strain A = C. albicans ATCC MYA-1003(R); MIC-0; 48 h at 35° C.
[2] = tested on: C. albicans ATCC 10231(R) (strain B); type: cell-based, Candida albicans
[3] = tested on: C. albicans ATCC MYA-1237(R) (strain C); type: cell-based, Candida albicans; conditions: strain C = C. albicans ATCC MYA-1237(R); MIC-0; 48 h; listed as printed beside letter D
[4] = tested on: C. albicans ATCC MYA-2310(S) (strain D); experiment: MIC determination (broth microdilution); type: cell-based, Candida albicans; conditions: strain D = C. albicans ATCC MYA-2310(S); MIC-0; 48 h; listed as printed beside letter E
[5] = tested on: C. albicans ATCC MYA-2876(S) (strain E); experiment: MIC determination (broth microdilution); type: cell-based, Candida albicans; conditions: strain E = C. albicans ATCC MYA-2876(S); MIC-0; 48 h; listed as printed beside letter F
[6] = tested on: C. albicans ATCC 64124(R) (strain F); type: cell-based, Candida albicans; conditions: strain F = C. albicans ATCC 64124(R); MIC-0; 48 h; listed as printed beside letter G
[7] = tested on: C. albicans ATCC 90819(R) (strain G); type: cell-based, Candida albicans; conditions: strain G = C. albicans ATCC 90819(R); MIC-0; 48 h; listed as printed without letter, below G
[8] = tested on: C. glabrata ATCC 2001 (strain H); experiment: MIC determination (broth microdilution); type: cell-based, Candida glabrata; conditions: strain H = C. glabrata ATCC 2001; MIC-0; 48 h at 35° C.
[9] = tested on: C. krusei ATCC 6258 (strain I); experiment: MIC determination (broth microdilution); type: cell-based; conditions: strain I = C. krusei ATCC 6258; MIC-0; 48 h; listed as split over r16 and r17 (r17 printed beside letter J)
[10] = tested on: C. parapsilosis ATCC 22019 (strain J); experiment: MIC determination (broth microdilution); type: cell-based; conditions: strain J = C. parapsilosis ATCC 22019; MIC-0; 48 h; listed as printed beside letter K
[11] = tested on: C. auris AR Bank # 0384 (strain K); experiment: MIC determination (broth microdilution); type: cell-based, Candida auris; conditions: strain K = C. auris AR Bank # 0384; MIC-0; 48 h (CAS read at 24 h); Table 1; also in Table 2
[12] = tested on: C. auris AR Bank # 0390 (strain L); experiment: MIC determination (broth microdilution); type: cell-based, Candida auris; conditions: strain L = C. auris AR Bank # 0390; MIC-0; 48 h (CAS read at 24 h); Table 1 row printed without letter, below L; also in Table 2
[13] = tested on: C. neoformans ATCC MYA-85 (strain M); experiment: MIC determination (broth microdilution); type: cell-based, Cryptococcus neoformans; conditions: strain M = C. neoformans ATCC MYA-85; MIC-0; 72 h at 35° C.
[14] = tested on: C. neoformans CN1 (strain N); experiment: MIC determination (broth microdilution); type: cell-based, Cryptococcus neoformans; conditions: MIC-0, 72 h at 35° C.
[15] = tested on: C. neoformans CN2 (strain O); experiment: MIC determination (broth microdilution); type: cell-based, Cryptococcus neoformans; conditions: MIC-0, 72 h at 35° C.
[16] = tested on: C. neoformans CN3 (strain P); experiment: MIC determination (broth microdilution); type: cell-based, Cryptococcus neoformans; conditions: MIC-0, 72 h at 35° C.
[17] = tested on: A. nidulans ATCC 38163 (strain Q); experiment: MIC determination (broth microdilution); type: cell-based, Aspergillus nidulans; conditions: strain Q = A. nidulans ATCC 38163; MIC-0; 72 h at 35° C.
[18] = tested on: A. terreus ATCC MYA-3633 (strain R); type: cell-based, Aspergillus terreus; conditions: strain R = A. terreus ATCC MYA-3633; MIC-0; 72 h at 35° C.
[19] = tested on: A. flavus ATCC MYA-3631 (strain S); experiment: MIC determination (broth microdilution); type: cell-based, Aspergillus flavus; conditions: strain S = A. flavus ATCC MYA-3631; MIC-0; 72 h at 35° C.
[20] = tested on: F. graminearum 053 (strain T); type: cell-based, Fusarium graminearum; conditions: strain T = F. graminearum 053; MIC-0; room temperature, 5 days
[21] = tested on: fungal strains (Candida spp., Cryptococcus spp., Aspergillus spp., Fusarium spp.); experiment: MIC determination, summary statements over the strain panel; type: cell-based; conditions: for overall assessment as antifungals: panel of twenty fungal strains (Table 1)

CC1CCC(C)[P+]1([Au-][Cl])c1ccccc1[P+]1([Au-][Cl])C(C)CCC1C [Compound 3, [1,2-bis[(2S,5S)-2,5-dimethylphospholano]benzene]digold(1)]
>31.3 (40.6) μg/mL: MIC [2]
31.3 µg/mL: MIC [1] | MIC [4] | MIC [5] | MIC [6] | MIC [7] | MIC [15]
40.6 µM: MIC (in parentheses) [1] | MIC (in parentheses) [3] | MIC (in parentheses) [4] | MIC (in parentheses) [5] | MIC (in parentheses) [6] | MIC (in parentheses) [7] | MIC (in parentheses) [15]
>31.3 (40.6) μM: MIC (in parentheses) [2]
> 31.3 µg/mL: MIC [3] | MIC [8] | MIC [9] | MIC [10] | MIC [11] | MIC [12] | MIC [14] | MIC [16] | MIC [17] | MIC [18] | MIC [19] | MIC [20]
1.95 µg/mL: MIC [13]
2.5 µM: MIC (in parentheses) [13]
poor antifungals: overall assessment as antifungals [21]
> 40.6 µM: MIC (in parentheses) [8] | MIC (in parentheses) [9] | MIC (in parentheses) [10] | MIC (in parentheses) [11] | MIC (in parentheses) [12] | MIC (in parentheses) [14] | MIC (in parentheses) [16] | MIC (in parentheses) [17] | MIC (in parentheses) [18] | MIC (in parentheses) [19] | MIC (in parentheses) [20]
completely inactive: antifungal activity ([21]; all fungal strains tested, except C. neoformans (strain M))

CC1CCC(C)[P+]1([Au-][Cl])c1ccccc1[P+]1([Au-][Cl])C(C)CCC1C [Compound 5, [1,2-bis[(2R,5R)-2,5-dimethylphospholano]benzene]digold(1)]
20.2 µM: MIC (in parentheses) [3] | MIC (in parentheses) [5] | MIC (in parentheses) [6] | MIC (in parentheses) [8] | MIC (in parentheses) [10] | MIC (in parentheses) [14]
> 31.3 µg/mL: MIC [11] | MIC [12] | MIC [17] | MIC [18] | MIC [19] | MIC [20]
10.1 µM: MIC (in parentheses) [4] | MIC (in parentheses) [7] | MIC (in parentheses) [15] | MIC (in parentheses) [16]
31.3 (40.6) μM: MIC (in parentheses) [2]
3.9 µg/mL: MIC [1]
15.6 µg/mL: MIC [3] | MIC [5] | MIC [6] | MIC [8] | MIC [10] | MIC [14]
poor antifungals: overall assessment as antifungals [21]
0.12 µg/mL: MIC [13]
> 40.6 µM: MIC (in parentheses) [11] | MIC (in parentheses) [12] | MIC (in parentheses) [17] | MIC (in parentheses) [18] | MIC (in parentheses) [19] | MIC (in parentheses) [20]
5.1 µM: MIC (in parentheses) [1]
31.3 µg/mL: MIC [9]
31.3 (40.6) μg/mL: MIC [2]
0.2 µM: MIC (in parentheses) [13]
inactive: antifungal activity ([21]; Aspergillus spp., Fusarium spp. and most of the non-albicans Candida strains)
7.8 µg/mL: MIC [4] | MIC [7] | MIC [15] | MIC [16]
40.6 µM: MIC (in parentheses) [9]
